Results reported in ChEMBL document CHEMBL1201862, “PubChem BioAssay data set” (2004).
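Interpolation was linear, between the two tested concentrations surrounding the appropriate level; five concentrations were tested over 48 hours in 96-well plates. GI50 marks 50% less growth.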 Active and inactive are the calls of the source. Cut-off read from the data, not from the text of the source: active = GI50 up to about 1.1 µM and inactive = higher.

Key:
Assay in all cases: NCI-60 cell line screen, 48 h
[1] = system: TK-10
[2] = system: HL-60
[3] = system: BT-549
[4] = system: MCF7
[5] = system: RXF 393
[6] = system: A549
[7] = system: MDA-MB-231
[8] = system: OVCAR-5
[9] = system: DU-145
[10] = system: HCC 2998
[11] = system: SR
[12] = system: Malme-3M
[13] = system: HCT-15
[14] = system: HOP-92
[15] = system: CAKI-1
[16] = system: UACC-257
[17] = system: NCI-H226
[18] = system: UO-31
[19] = system: CCRF-CEM

Measured: GI50

CCO/C=N/C1=C(C#N)C(c2ccc(Cl)cc2)c2c(-c3ccccc3)nn(-c3ccccc3)c2O1 (stereo unspecified)
5.43 µM: [13]
inactive: [1] 7.19 µM | [2] 5.66 µM | [3] 14.1 µM | [4] 3.81 µM | [5] 7.03 µM | [6] 5.73 µM | [7] 21.6 µM | [8] 23.7 µM | [9] 16 µM | [10] 7.16 µM | [11] 5.5 µM | [12] 12.3 µM | [14] 5.42 µM | [15] 15.7 µM | [16] 11.8 µM | [17] 15.7 µM | [18] 11.6 µM | [19] 5.73 µM

Clc1ccc(Cn2cc(/C=N/n3cnnc3)c3ccccc32)cc1
active: [17] 1.1 µM
60.1 µM: [13]
inactive: [1] 4.81 µM | [2] 40.6 µM | [3] 29.3 µM | [4] 28.4 µM | [5] 16.4 µM | [6] 41.8 µM | [7] 20.4 µM | [8] 11.7 µM | [9] > 100 µM | [10] 14.4 µM | [11] 39.9 µM | [12] 89.3 µM | [14] 14.6 µM | [15] 21.5 µM | [16] 46.5 µM | [18] 30.5 µM | [19] 73.6 µM

CCCCCC(=O)OC[n+]1ccc(-c2c(COC(=O)NC(C)C)c(COC(=O)NC(C)C)c3n2CCC3)cc1
inactive: [1] > 100 µM | [2] 37.3 µM | [3] > 100 µM | [4] 77.1 µM | [5] > 100 µM | [6] > 100 µM | [7] > 100 µM | [8] > 100 µM | [9] > 35.5 µM | [10] > 100 µM | [11] 16.9 µM | [12] > 100 µM | [14] > 100 µM | [15] 49.5 µM | [16] > 100 µM | [17] > 100 µM | [18] > 100 µM | [19] 43.2 µM
> 100 µM: [13]

CSC(=S)N/N=C/c1ccccc1
34.4 µM: [13]
inactive: [1] > 100 µM | [2] 36 µM | [3] 46.3 µM | [4] 33.6 µM | [5] 28.8 µM | [6] 43.2 µM | [7] > 100 µM | [8] > 100 µM | [9] 42.3 µM | [10] > 100 µM | [11] 40.8 µM | [12] 36.5 µM | [14] 26.9 µM | [15] 24.5 µM | [16] > 100 µM | [17] 40.6 µM | [18] 34.7 µM | [19] 26 µM

c1ccc2c(c1)CCN2CCc1c[nH]c2ccccc12
> 10 µM: [13]
inactive: [1] > 10 µM | [2] > 10 µM | [3] > 10 µM | [4] > 10 µM | [5] > 10 µM | [6] > 10 µM | [7] > 10 µM | [8] > 10 µM | [9] > 10 µM | [10] > 10 µM | [11] > 10 µM | [12] > 10 µM | [14] > 10 µM | [15] > 10 µM | [16] > 10 µM | [17] > 10 µM | [18] > 10 µM | [19] > 10 µM

CC(=O)OC[C@@H](OC(C)=O)[C@@H](OC(C)=O)[C@H]1OC[C@@H]2C[C@H]([C@H]1OC(C)=O)N(Cc1ccccc1)O2
inactive: [1] > 100 µM | [2] > 100 µM | [3] > 100 µM | [4] > 100 µM | [5] > 100 µM | [6] > 100 µM | [7] > 100 µM | [8] > 100 µM | [9] > 100 µM | [10] > 100 µM | [11] > 100 µM | [12] > 100 µM | [14] > 100 µM | [15] > 100 µM | [16] > 100 µM | [17] > 100 µM | [18] 61.7 µM | [19] > 100 µM

COc1ccc2nc3c([N+](=O)[O-])ccc4c3c(c2c1)N(CCCN(C)C)C(=S)N4CCCN(C)C
inactive: [1] 7.4 µM | [2] 66.4 µM | [3] 11.8 µM | [4] 5.07 µM | [5] 9.53 µM | [6] 5.45 µM | [7] 7.28 µM | [8] 14.6 µM | [9] 5.16 µM | [10] 2.9 µM | [11] 1.72 µM | [12] 2.65 µM | [14] 4.79 µM | [15] 14.5 µM | [16] 6.12 µM | [17] 7.48 µM | [18] 7.85 µM | [19] 4.98 µM
3.4 µM: [13]

COC(=O)c1c(O)c(C#N)c2[nH]c3ccccc3n2c1=O
> 100 µM: [13]
inactive: [1] > 100 µM | [2] > 100 µM | [3] > 100 µM | [4] > 100 µM | [5] > 100 µM | [6] > 100 µM | [7] > 100 µM | [8] > 100 µM | [9] > 100 µM | [10] > 100 µM | [11] > 100 µM | [12] > 100 µM | [14] > 100 µM | [15] > 100 µM | [16] > 100 µM | [17] > 100 µM | [18] > 100 µM | [19] > 100 µM

CCOC(=O)C12CC(C)=C(C)CC1CCCc1ccccc12 (stereo unspecified)
inactive: [1] 27 µM | [2] 11.2 µM | [3] 43.3 µM | [4] 17 µM | [5] 18.7 µM | [6] 32.7 µM | [7] 14.2 µM | [8] 21.4 µM | [9] 34 µM | [10] 14.2 µM | [11] 23.8 µM | [12] 23 µM | [14] 13.5 µM | [15] 31.1 µM | [16] 17.6 µM | [17] 24.5 µM | [18] 47 µM | [19] 18.4 µM
22.3 µM: [13]

CC(C)(C)OC(=O)NCC(c1c[nH]c2ccccc12)c1c[nH]c2ccccc12
inactive: [1] 15.5 µM | [2] 14.4 µM | [3] 18.9 µM | [4] 67.5 µM | [5] 4.56 µM | [6] 14.6 µM | [7] 16 µM | [8] 16.9 µM | [9] 15.6 µM | [11] 14.9 µM | [12] 17.7 µM | [14] 13.1 µM | [15] 14.5 µM | [16] 15.1 µM | [17] 21 µM | [18] 14.1 µM | [19] 14.6 µM
20.8 µM: [13]

C[C@]12CCC3c4ccc(O)cc4CC[C@H]3C1CC(=O)N(N)C2=O (stereo partly specified)
inactive: [1] > 100 µM | [2] > 100 µM | [3] > 100 µM | [4] > 100 µM | [5] > 100 µM | [6] > 100 µM | [7] > 100 µM | [8] > 100 µM | [9] > 100 µM | [10] > 100 µM | [11] > 100 µM | [12] > 100 µM | [14] > 100 µM | [15] > 100 µM | [16] > 100 µM | [17] > 100 µM | [18] > 100 µM | [19] > 100 µM
